Source: patent US6440899B1, “Cyclohexenonedioxothiochromanoyl derivatives” (BASF Aktiengesellschaft, priority 1998, dated 2002)

Key:
Assay in all cases: greenhouse post-emergence herbicidal test
Format in all cases: in vivo
Settings in all cases: applied post-emergence, rates of application of 0.5 and 0.25 kg/ha, respectively
Galium aparine = tested on: Galium aparine
Source text: (§1) The seeds of the test plants were sown separately for each species. For the post-emergence treatment, the test plants were first grown to a height of 3 to 15 cm, depending on the plant habit, and only then treated with the active compounds which had been suspended or emulsified in water. For this purpose, the test plants were either sown directly and grown in the same containers, or they were first grown separately as seedlings and transplanted into the test containers a few days prior to treatment. The rate of application for the post-emergence treatment was 0.5 or 0.25 kg/ha of a.s. (active substance). Depending on the species, the plants were kept at 10-25° C. or 20-35° C. The test period extended over 2 to 4 weeks. During this time, the plants were tended, and their response to the individual treatments was evaluated. Evaluation was carried out using a scale from 0 to 100. 100 means no emergence of the plants, or complete destruction of at least the aerial parts, and 0 means no damage, or normal course of growth. The plants used in the greenhouse experiments belonged to the following species: [table]

Setaria viridis = tested on: Setaria viridis
Source text: as §1

Chenopodium album = tested on: Chenopodium album
Source text: as §1

Sinapis alba = tested on: Sinapis alba
Source text: as §1

Solanum nigrum = tested on: Solanum nigrum
Source text: as §1

Echinochloa crus-galli = tested on: Echinochloa crus-galli
Source text: as §1

Setaria faberi = tested on: Setaria faberi
Source text: as §1

Measured: herbicidal activity

Cc1c(C(=O)C2=C(Cl)C(C)(C)C(=O)C(C)(C)C2=O)ccc2c1S(=O)(=O)CCS2(=O)=O [Compound 4.1, 1-Chloro-2-[(8-methyl-2,3-dihydro-1,1,4,4-tetraoxobenz[1,4]dithiyn-7-yl)carbonyl]-4,4,6,6-tetramethyl-1-cyclohexene-3,5-dione]
very good activity: all assays above
